Experimental data published in US20090062214A1, “Left-Side Glucose Lipid a Analogue” (priority 2004, published 2009).
Where two headings read alike, the source gives them in different places.

What was measured:
[1] = system: TNFα production in human whole blood; assay: Test for inhibition against TNFα production in human whole blood (in vitro); assay type: cell-based
Procedure: This test was performed according to the method by Hartman et al. (D. A. Hartman, S. J. Ochalski and R. P. Carlson; The effects of antiinflammatory and antiallergic drugs on cytokine release after stimulation of human whole blood by lipopolysaccharide and zymosan A: Inflamm. Res., 44, 269 (1995)).
Peripheral blood was obtained from a healthy volunteer in the presence of heparin. 360 μL of whole blood was added to a 96-well block to which 20 μL of a dimethyl sulfoxide solution of the analyte compound was previously added. 20 μL of lipopolysaccharide (LPS) (derived from E. coli 026:B6 available from SIGMA Inc.) (final concentration: 10 ng/mL) was further added thereto as a stimulant, and the mixture was sufficiently mixed and incubated under conditions of 37° C. and 5% CO2 for 6 hours. After completion of the incubation, the mixture was cooled to 4° C. to discontinue the reaction, and the mixture was immediately centrifuged at 2000 rpm for 15 minutes. The supernatant plasma was then separated and collected. The TNFα produced and released in the plasma was measured by an enzyme-linked immunosorbent assay (ELISA) kit (made by Biosource International). The inhibition rate was determined from the amount of cytokine produced in the presence and in the absence of the analyte compound. IC50 values were calculated from the average of the inhibition rates by the least-square method. For comparison, an IC50 value was calculated in the same manner as in the case of the test compound, using a compound described in U.S. Pat. No. 5,935,938 as a comparative compound. The structural formula of the comparative compound is shown.
This test was performed in the same manner as in Test Example 1. The same comparative compound as in Test Example 1 was used.

TNFα production in mice = assay: Test for inhibitory activity against TNFα production in mice (in vivo); design: species or system C3H/HeN mice; details: GalN.LPS, tail vein injection, plasma TNFα after an hour
Procedure: This test was performed according to the method by Y. Endo et al. (British Journal of Pharmacology 128, 5-12 (1999)).
(§1) A group of five C3H/HeN mice (male, 7-week old) known to be highly sensitive to lipopolysaccharide (LPS) was used. Galactosamine (GalN, 1 g/5 mL) and LPS (0.05 mg/5 mL) were each dissolved in normal saline, and they were mixed in equal amounts to prepare a GalN.LPS solution. The prepared GalN.LPS solution was injected into the tail vein in a dose of 10 mL/kg. The test compound was dissolved in a 0.1% aqueous triethylamine solution and the mixture was injected into the tail vein in a dose of 10 mL/kg substantially simultaneously with the injection of the GalN.LPS solution. […] The amount of TNFα produced in the plasma was measured using a commercially available TNFα ELISA kit. The inhibitory activity against TNFα production of the test compound was calculated as an inhibition rate against TNFα produced in response to the GalN.LPS injection. A regression line was obtained from the inhibition rates and the doses for the mice. The ID50 value (a dose at which the inhibition rate is 50%) was calculated from the regression line.

[2] = system: mouse fatal state after GalN.LPS injection; assay: Survival test for mouse fatal state (in vivo); design: species or system C3H/HeN mice; details: tail vein
Procedure: as §1
This test was performed according to the method by H. Takada (The Journal of Infectious Diseases 162, 428-434 (1990)).
Whether mice were alive or not was observed 72 hours after injection of a GalN.LPS solution, and the survival rate was calculated. The strain, age in week and gender of the mice used, the method of preparing the GalN.LPS solution and the compound solution administered, the administration route, the timing and the like were the same as in Test Example 3. A group of 8 mice was used in the test.

[3] = human whole blood, LPS 10 ng/mL, 6 hours, ELISA, Test Example 1, Table 1, read-out: IC50 (nM), inhibition of TNFα production

## CCCCCC/C=C\CCCCCCCCCC(=O)N[C@H]1[C@H](OC[C@H]2O[C@H](OP(=O)(O)O)[C@H](NC(=O)CC(=O)CCCCCCCCCCC)[C@@H](OCCCCCCCCCC)[C@@H]2O)O[C@H](COC)[C@@H](OP(=O)(O)O)[C@@H]1OCC[C@@H](CCCCCCC)OC [Comparative Compound, reference compound]
[1]; Homo sapiens, 6 h, read-out: IC50 (nM), inhibition of TNFα production, human whole blood, LPS 10 ng/mL, 6 hours, ELISA, Test Example 1, Table 1
  IC50: 0.97 nM
[1]; Homo sapiens, 6 h, read-out: IC50 (nM), inhibition of TNFα production, human whole blood, LPS 10 ng/mL, 6 hours, ELISA, Test Example 2, Table 2
  IC50: 2.94 nM
[1]; Homo sapiens, 6 h, read-out: IC50 (nM), inhibition of TNFα production, human whole blood, LPS 10 ng/mL, 6 hours, ELISA, Test Example 2, Table 3
  IC50: 8.24 nM
TNFα production in mice; Table 4
  ID50 (mg/kg), inhibition of TNFα production: 2.12 mg/kg
TNFα production in mice; Table 5
  ID50 (mg/kg), inhibition of TNFα production: 3.28 mg/kg
TNFα production in mice; Table 6
  ID50 (mg/kg), inhibition of TNFα production: 1.82 mg/kg
[2]; dose 0.3 mg/kg, Table 7
  Survival rate (%) of mice after 72 hours: 25%
[2]; dose 0.3 mg/kg, Table 8
  Survival rate (%) of mice after 72 hours: 50%
[2]; dose 0.3 mg/kg, Table 9
  Survival rate (%) of mice after 72 hours: 13%
[2]; dose 1 mg/kg, Table 7
  Survival rate (%) of mice after 72 hours: 63%
[2]; dose 1 mg/kg, Table 8
  Survival rate (%) of mice after 72 hours: 75%
[2]; dose 1 mg/kg, Table 9
  Survival rate (%) of mice after 72 hours: 0%
[2]; dose 3 mg/kg, Table 7
  Survival rate (%) of mice after 72 hours: 100%
[2]; dose 3 mg/kg, Table 8
  Survival rate (%) of mice after 72 hours: 50%
[2]; dose 3 mg/kg, Table 9
  Survival rate (%) of mice after 72 hours: 25%

## CCCCCC/C=C\CCCCCCCCCC(=O)O[C@H]1[C@H](OC[C@H]2O[C@H](OP(=O)(O)O)[C@H](NC(=O)CC(=O)CCCCCCCCCCC)[C@@H](OCCCCCCCCCC)[C@@H]2O)O[C@H](COC)[C@@H](OP(=O)(O)O)[C@@H]1OCC[C@@H](CCCCCCC)OC [Compound 1, Phosphono 3-O-decyl-2-deoxy-6-O-{3-O-[(R)-3-methoxydecyl]-6-O-methyl-2-O-[(Z)-11-octadecenoyl]-4-O-phosphono-β-D-glucopyranosyl}-2-(3-oxotetradecanoylamino)-α-D-glucopyranoside]
[1]; [3]
  IC50: 0.49 nM
TNFα production in mice; Table 4
  ID50 (mg/kg), inhibition of TNFα production: 0.45 mg/kg

## CCCCCC/C=C\CCCCCCCCCCO[C@H]1[C@H](OC[C@H]2O[C@H](OP(=O)(O)O)[C@H](NC(=O)CC(=O)CCCCCCCCCCC)[C@@H](OCCCCCCCCCC)[C@@H]2O)O[C@H](COC)[C@@H](OP(=O)(O)O)[C@@H]1OCC[C@@H](CCCCCCC)OC [Compound 2, Phosphono 3-O-decyl-2-deoxy-6-O-{3-O-[(R)-3-methoxydecyl]-6-O-methyl-2-O-[(Z)-11-octadecenyl]-4-O-phosphono-β-D-glucopyranosyl}-2-(3-oxotetradecanoylamino)-α-D-glucopyranoside]
[1]; [3]
  IC50: 0.51 nM
TNFα production in mice; Table 4
  ID50 (mg/kg), inhibition of TNFα production: <0.2 mg/kg
[2]; dose 0.3 mg/kg, Table 7
  Survival rate (%) of mice after 72 hours: 38%
[2]; dose 1 mg/kg, Table 7
  Survival rate (%) of mice after 72 hours: 75%
[2]; dose 3 mg/kg, Table 7
  Survival rate (%) of mice after 72 hours: 100%

## CCCCCC/C=C\CCCCCCCCCC(=O)O[C@H]1[C@H](OC[C@H]2O[C@H](OP(=O)(O)O)[C@H](NC(=O)CC(=O)CCCCCCCCCCC)[C@@H](OCCCCCCCCCC)[C@@H]2O)O[C@H](CO)[C@@H](OP(=O)(O)O)[C@@H]1OCC[C@@H](CCCCCCC)OC [Compound 3, Phosphono 3-O-decyl-2-deoxy-6-O-{3-O-[(R)-3-methoxydecyl]-2-O-[(Z)-11-octadecenoyl]-4-O-phosphono-β-D-glucopyranosyl}-2-(3-oxotetradecanoylamino)-α-D-glucopyranoside]
[1]; [3]
  IC50: 0.65 nM
TNFα production in mice; Table 4
  ID50 (mg/kg), inhibition of TNFα production: 0.96 mg/kg
[2]; dose 0.3 mg/kg, Table 7
  Survival rate (%) of mice after 72 hours: 50%
[2]; dose 1 mg/kg, Table 7
  Survival rate (%) of mice after 72 hours: 100%
[2]; dose 3 mg/kg, Table 7
  Survival rate (%) of mice after 72 hours: 100%

## CCCCCC/C=C\CCCCCCCCCC(=O)O[C@H]1[C@H](OC[C@H]2O[C@H](OP(=O)(O)O)[C@H](OC(=O)CC(=O)CCCCCCCCCCC)[C@@H](OCCCCCCCCCC)[C@@H]2O)O[C@H](COC)[C@@H](OP(=O)(O)O)[C@@H]1OCC[C@@H](CCCCCCC)OC [Compound 8, phosphono 3-O-decyl-6-O-{3-O-[(R)-3-methoxydecyl]-6-O-methyl-2-O-[(Z)-11-octadecenoyl]-4-O-phosphono-β-D-glucopyranosyl}-2-O-(3-oxotetradecanoyl)-α-D-glucopyranoside]
[1]; human whole blood, LPS 10 ng/mL, 6 hours, ELISA, Test Example 2, Table 2, read-out: IC50 (nM), inhibition of TNFα production
  IC50: 0.06 nM
TNFα production in mice; Table 5
  ID50 (mg/kg), inhibition of TNFα production: 0.55 mg/kg
[2]; dose 0.3 mg/kg, Table 8
  Survival rate (%) of mice after 72 hours: 50%
[2]; dose 1 mg/kg, Table 8
  Survival rate (%) of mice after 72 hours: 75%
[2]; dose 3 mg/kg, Table 8
  Survival rate (%) of mice after 72 hours: 100%

## CCCCCC/C=C\CCCCCCCCCC(=O)O[C@H]1[C@H](OC[C@H]2O[C@H](OP(=O)(O)O)[C@H](OC(=O)CC(=O)CCCCCCCCCCC)[C@@H](OCCCCCCCCCC)[C@@H]2O)O[C@H](CO)[C@@H](OP(=O)(O)O)[C@@H]1OCC[C@@H](CCCCCCC)OC [Compound 9, Phosphono 3-O-decyl-6-O-{3-O-[(R)-3-methoxydecyl]-2-O-[(Z)-11-octadecenoyl]-4-O-phosphono-β-D-glucopyranosyl}-2-O-(3-oxotetradecanoyl)-α-D-glucopyranoside]
[1]; human whole blood, LPS 10 ng/mL, 6 hours, ELISA, Test Example 2, Table 3, read-out: IC50 (nM), inhibition of TNFα production
  IC50: 0.83 nM
TNFα production in mice; Table 6
  ID50 (mg/kg), inhibition of TNFα production: <0.2 mg/kg
[2]; dose 0.3 mg/kg, Table 9
  Survival rate (%) of mice after 72 hours: 13%
[2]; dose 1 mg/kg, Table 9
  Survival rate (%) of mice after 72 hours: 38%
[2]; dose 3 mg/kg, Table 9
  Survival rate (%) of mice after 72 hours: 100%
